Measured values from PubChem BioAssay AID248 (DTP/NCI, 2004).
Several values for one entry are separate records, joined by “and”; a condition that tells them apart may be missing. Equal entries are not always repeated. Toxic doses and inconclusive results are not listed.

Tested on: L1210 leukemia ip in BDF1 mice, survival T/C
Assay: NCI In Vivo Anticancer Drug Screen. Data for tumor model L1210 Leukemia (intraperitoneal) in B6D2F1 (BDF1) mice
Settings: endpoint: mean survival time, higher = longer survival
In short: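 Ratio derived from survival: compound-dosed mice over vehicle-dosed mice, all bearing a transplantable tumor.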

[1] = dose: 75.0 mg/kg/injection, schedule: Q01DX001 (ip), vehicle: saline
[2] = dose: 150.0 mg/kg/injection, schedule: Q01DX001 (ip), vehicle: saline
[3] = dose: 200.0 mg/kg/injection, schedule: Q04DX003 (ip), vehicle: saline with Tween-80
[4] = dose: 400.0 mg/kg/injection, schedule: Q04DX003 (ip), vehicle: saline with Tween-80
[5] = dose: 100.0 mg/kg/injection, schedule: Q04DX002 (ip), vehicle: Klucel (hydroxypropylcellulose) (HPC)
[6] = dose: 200.0 mg/kg/injection, schedule: Q04DX002 (ip), vehicle: Klucel (hydroxypropylcellulose) (HPC)
[7] = dose: 100.0 mg/kg/injection, schedule: Q04DX003 (ip), vehicle: saline
[8] = dose: 200.0 mg/kg/injection, schedule: Q01DX009 (ip), vehicle: saline
[9] = dose: 200.0 mg/kg/injection, schedule: Q04DX003 (ip), vehicle: saline
[10] = dose: 400.0 mg/kg/injection, schedule: Q01DX009 (ip), vehicle: saline
[11] = dose: 400.0 mg/kg/injection, schedule: Q04DX003 (ip), vehicle: saline
[12] = dose: 100.0 mg/kg/injection, schedule: Q04DX003 (ip), vehicle: saline with Tween-80
[13] = dose: 100.0 mg/kg/injection, schedule: Q04DX003 (ip), vehicle: Klucel (hydroxypropylcellulose) (HPC)
[14] = dose: 200.0 mg/kg/injection, schedule: Q04DX003 (ip), vehicle: Klucel (hydroxypropylcellulose) (HPC)
[15] = dose: 400.0 mg/kg/injection, schedule: Q04DX003 (ip), vehicle: Klucel (hydroxypropylcellulose) (HPC)
[16] = dose: 100.0 mg/kg/injection, schedule: Q01DX009 (ip), vehicle: Klucel (hydroxypropylcellulose) (HPC)
[17] = dose: 200.0 mg/kg/injection, schedule: Q01DX009 (ip), vehicle: Klucel (hydroxypropylcellulose) (HPC)
[18] = dose: 400.0 mg/kg/injection, schedule: Q01DX009 (ip), vehicle: Klucel (hydroxypropylcellulose) (HPC)
[19] = dose: 100.0 mg/kg/injection, schedule: Q01DX009 (ip), vehicle: saline
[20] = dose: 100.0 mg/kg/injection, schedule: Q01DX009 (ip), vehicle: saline with Tween-80
[21] = dose: 200.0 mg/kg/injection, schedule: Q01DX009 (ip), vehicle: saline with Tween-80
[22] = dose: 400.0 mg/kg/injection, schedule: Q01DX009 (ip), vehicle: saline with Tween-80

CCCCCCCCCCCCCCCC(=O)NCC(C)NC(=O)CCCCCCCCCCCCCCC (stereo not given)
T/C [1]: 95 % of control
T/C [2]: 96 % of control
T/C (dose: 300.0 mg/kg/injection, schedule: Q01DX001 (ip), vehicle: saline): 103 % of control

COC(=O)C(CCC(=O)C=[N+]=N)NC(=O)C(Cl)Cl (stereo not given)
T/C (dose: 35.0 mg/kg/injection, schedule: Q01DX001 (ip), vehicle: saline): 122 % of control
T/C [1]: 122 % of control
T/C (dose: 125.0 mg/kg/injection, schedule: Q01DX001 (ip), vehicle: saline): 111 % of control
T/C [3]: 167 % of control
T/C (dose: 266.0 mg/kg/injection, schedule: Q01DX001 (ip), vehicle: saline): 98 % of control
T/C [4]: 124 % of control
T/C (dose: 600.0 mg/kg/injection, schedule: Q01DX001 (ip), vehicle: saline): 117 % of control

CN(CCO)C(=O)C1C(c2ccccc2)C1c1ccccc1 (stereo not given)
T/C [5]: 100 % of control
T/C [6]: 94 % of control
T/C (dose: 400.0 mg/kg/injection, schedule: Q04DX002 (ip), vehicle: Klucel (hydroxypropylcellulose) (HPC)): 97 % of control

O=[N+]([O-])c1[nH]c(Cl)nc1Cl
T/C (dose: 25.0 mg/kg/injection, schedule: Q01DX001 (ip), vehicle: saline with Tween-80): 97 % of control
T/C (dose: 50.0 mg/kg/injection, schedule: Q01DX001 (ip), vehicle: saline with Tween-80): 103 % of control

C/C(=C/c1ccccc1)C(=O)NN
T/C (dose: 80.0 mg/kg/injection, schedule: Q01DX001 (ip), vehicle: saline with Tween-80): 98 % of control
T/C (dose: 160.0 mg/kg/injection, schedule: Q01DX001 (ip), vehicle: saline with Tween-80): 106 % of control

c1ccc2c(c1)CNC2
T/C [7]: 104 % of control
T/C [8]: 94 % of control
T/C [9]: 106 % of control
T/C [10]: 92 % of control
T/C [11]: 97 % of control

C[n+]1ccc(/C=C/Nc2cccc(N)n2)cc1
T/C [1]: 96 % of control
T/C [2]: 102 % of control

C/C=C/C1OCC(CC)([N+](=O)[O-])CO1 (stereo not given)
T/C [12]: 101 % of control
T/C [3]: 96 % of control
T/C [4]: 98 % of control

Cc1cnc(N)cn1 (tested in a mixture with another compound)
T/C [13]: 102 % of control
T/C [14]: 109 % of control
T/C [15]: 88 % of control

C=C(Cl)CC1(C(=O)OCC)CCN(S(=O)(=O)c2ccc(C)cc2)c2ccccc2C1=O (stereo not given)
T/C [13]: 94 % of control
T/C [14]: 98 % of control
T/C [15]: 88 % of control

O=C(O)c1c(Cl)n(-c2ccccc2)c2ccccc12
T/C (dose: 50.0 mg/kg/injection, schedule: Q04DX002 (ip), vehicle: Klucel (hydroxypropylcellulose) (HPC)): 101 % of control
T/C [5]: 104 % of control
T/C [6]: 93 % of control

COC(=O)C1CC(C(N)=O)CC1OC(C)=O (stereo not given)
T/C [16]: 100 % of control
T/C [17]: 93 % of control
T/C [18]: 98 % of control

NC(=O)c1n[nH]nc1N1CC[N+](CCCl)=N1
T/C (dose: 44.0 mg/kg/injection, schedule: Q01DX009 (ip), vehicle: saline with Tween-80): 110 % of control
T/C (dose: 50.0 mg/kg/injection, schedule: Q01DX009 (ip), vehicle: saline with Tween-80): 111 % of control
T/C (dose: 50.0 mg/kg/injection, schedule: Q04DX003 (ip), vehicle: saline with Tween-80): 105 % of control
T/C (dose: 67.0 mg/kg/injection, schedule: Q01DX009 (ip), vehicle: saline with Tween-80): 107 % of control
T/C [19]: 96 % of control
T/C [12]: 97 % of control and 113 % of control
T/C [7]: 107 % of control
T/C (dose: 150.0 mg/kg/injection, schedule: Q01DX009 (ip), vehicle: saline with Tween-80): 112 % of control
T/C [8]: 91 % of control
T/C [3]: 118 % of control and 121 % of control
T/C [9]: 105 % of control
T/C [10]: 95 % of control
T/C [4]: 113 % of control
T/C [11]: 94 % of control

CC(=O)c1c(C)cc(C(C)(C)C)cc1C
T/C [19]: 97 % of control
T/C [7]: 105 % of control
T/C [8]: 100 % of control
T/C [9]: 92 % of control
T/C [10]: 108 % of control
T/C [11]: 100 % of control

CCCCC(C)(O)c1cc(OC)cc(OC)c1 (stereo not given)
T/C (dose: 100.0 mg/kg/injection, schedule: Q01DX001 (ip), vehicle: saline with Tween-80): 104 % of control
T/C (dose: 200.0 mg/kg/injection, schedule: Q01DX001 (ip), vehicle: saline with Tween-80): 97 % of control
T/C (dose: 400.0 mg/kg/injection, schedule: Q01DX001 (ip), vehicle: saline with Tween-80): 87 % of control

O=C(NNC(=S)Nc1ccccc1Cl)c1ccncc1
T/C (dose: 75.0 mg/kg/injection, schedule: Q01DX009 (ip), vehicle: Klucel (hydroxypropylcellulose) (HPC)): 93 % of control
T/C (dose: 150.0 mg/kg/injection, schedule: Q01DX009 (ip), vehicle: Klucel (hydroxypropylcellulose) (HPC)): 97 % of control
T/C (dose: 300.0 mg/kg/injection, schedule: Q01DX009 (ip), vehicle: Klucel (hydroxypropylcellulose) (HPC)): 101 % of control

CS(=O)(=O)c1nc(Cl)nc(S(C)(=O)=O)c1Cl
T/C [13]: 110 % of control
T/C [14]: 107 % of control
T/C [15]: 104 % of control

C1CN=C(C2=NCCCN2)NC1
T/C [19]: 107 % of control and 101 % of control
T/C [7]: 98 % of control
T/C [8]: 98 % of control and 101 % of control
T/C [9]: 98 % of control
T/C [10]: 92 % of control and 102 % of control
T/C [11]: 102 % of control

C1CC(=NN=C2CCSCC2)CCS1
T/C [7]: 96 % of control
T/C [9]: 94 % of control
T/C [11]: 123 % of control

CCOC(=O)c1ccc(N)c(C(O)(C(F)(F)F)C(F)(F)F)c1
T/C [20]: 106 % of control
T/C [21]: 95 % of control
T/C [22]: 104 % of control

S=C(Cc1ccc2ccccc2c1)N1CCN(c2ccccc2)CC1
T/C (dose: 100.0 mg/kg/injection, schedule: Q01DX001 (ip), vehicle: olive oil, sesame oil, peanut oil): 92 % of control
T/C (dose: 100.0 mg/kg/injection, schedule: Q04DX003 (sc), vehicle: olive oil, sesame oil, peanut oil): 100 % of control
T/C (dose: 200.0 mg/kg/injection, schedule: Q01DX001 (ip), vehicle: olive oil, sesame oil, peanut oil): 97 % of control
T/C (dose: 200.0 mg/kg/injection, schedule: Q04DX003 (sc), vehicle: olive oil, sesame oil, peanut oil): 111 % of control
T/C (dose: 400.0 mg/kg/injection, schedule: Q01DX001 (ip), vehicle: olive oil, sesame oil, peanut oil): 97 % of control
T/C (dose: 400.0 mg/kg/injection, schedule: Q04DX003 (sc), vehicle: olive oil, sesame oil, peanut oil): 107 % of control

CCOC(=O)C(=O)Cc1cnc2ccccc2n1
T/C [16]: 113 % of control
T/C [13]: 97 % of control
T/C [17]: 94 % of control
T/C [14]: 96 % of control
T/C [18]: 92 % of control
T/C [15]: 100 % of control

CC(c1ccc([N+](=O)[O-])cc1)n1cnc2c(N(CCO)CCO)ncnc21 (stereo not given)
T/C (dose: 100.0 mg/kg/injection, schedule: Q01DX001 (ip), vehicle: saline): 104 % of control
T/C (dose: 200.0 mg/kg/injection, schedule: Q01DX001 (ip), vehicle: saline): 103 % of control
T/C (dose: 400.0 mg/kg/injection, schedule: Q01DX001 (ip), vehicle: saline): 103 % of control

C[Si](C)(C)Cc1cccc(F)c1
T/C (dose: 25.6 mg/kg/injection, schedule: Q04DX002 (ip), vehicle: saline with Tween-80): 93 % of control
T/C (dose: 64.0 mg/kg/injection, schedule: Q04DX002 (ip), vehicle: saline with Tween-80): 90 % of control
T/C (dose: 160.0 mg/kg/injection, schedule: Q04DX002 (ip), vehicle: saline with Tween-80): 87 % of control
T/C (dose: 400.0 mg/kg/injection, schedule: Q04DX002 (ip), vehicle: saline with Tween-80): 97 % of control

CCCCCCCNC(=O)Nc1cc([N+](=O)[O-])ccc1C
T/C [20]: 98 % of control
T/C [21]: 98 % of control
T/C [22]: 94 % of control

CC[N+](C)(CC)CCSC(=O)Nc1ccc(Cc2ccc(NC(=O)SCC[N+](C)(CC)CC)cc2)cc1
T/C (dose: 10.0 mg/kg/injection, schedule: Q04DX003 (ip), vehicle: Klucel (hydroxypropylcellulose) (HPC)): 96 % of control
T/C (dose: 12.5 mg/kg/injection, schedule: Q01DX009 (ip), vehicle: Klucel (hydroxypropylcellulose) (HPC)): 103 % of control
T/C (dose: 20.0 mg/kg/injection, schedule: Q04DX003 (ip), vehicle: Klucel (hydroxypropylcellulose) (HPC)): 96 % of control
